Reference: US20080004311A1, “HISTONE DEACETYLASE INHIBITORS FOR TREATING DEGENERATIVE DISEASES OF THE EYE” (ALCON, INC., priority 2002, published 2008)

Test system: cultured adult rat retinal ganglion cells (RGC)
Assay: Survival of cultured adult rat retinal ganglion cells (RGC), Thy-1-positive healthy cell count
Assay type: cell-based
Details: Thy-1-positive healthy cells counted; for RGC survival against trophic factor withdrawal (TFW)-induced toxicity: bFGF, BDNF and CNTF removed from medium, cultured with compound for 3 days; for RGC survival against TNFα-induced toxicity / RGC survival against glutamate-induced toxicity: pre-treated 30 minutes; for RGC survival against TNFα-induced toxicity: then 10 ng/mL TNFα for 3 days; for RGC survival against glutamate-induced toxicity: then 100 μM glutamate for 3 days
Experimental: Culture of rat retinal ganglion cells (RGC) was performed as described in Pang et al. (Pang et al., 2007, BMC Neuroscience 8:11). Adult Sprague-Dawley rats were briefly euthanized by CO2 asphyxiation. Their eyes were enucleated and placed in the Neurobasal medium. The retina from each eye was detached and isolated. Retinal cells were dissociated by combining up to 20 retinas with 5 mL of papain solution, containing 10 mg papain, 2 mg DL-cysteine, and 2 mg bovine serum albumin in 5 ml of Neurobasal medium, for 25 min at 37° C., then washed 3 times with 5 mL RGC medium (Neurobasal medium with various nutrient supplements)+1% fetal calf serum. Retinal pieces were triturated by passing through a fire-polished disposable pipette several times until cells were dispersed. Cell suspension was placed onto of the poly-D-lysine- and laminin-coated 8-well chambered culture slide. The cells were then cultured in 95% air/5% CO2 at 37° C.
For glutamate-induced toxicity studies, cells were pre-treated with vehicle (cell media plus 0.1% DMSO) or the indicated compounds for 30 minutes, followed by 100 μM glutamate for 3 days. For TNFα-induced toxicity studies, cells were pre-treated with vehicle or the indicated compounds for 30 minutes, followed by 10 ng/mL TNFα for 3 days. For s trophic factor withdrawal (TFW) studies, three trophic factors, basic fibroblast growth factor, brain-derived neurotrophic factor, and ciliary neurotrophic factor, were removed from the culture medium. Cells were cultured in this medium with the indicated compounds for 3 days.
At the end of the incubation period, the cells were fixed and labeled for Thy-1, a RGC marker, by immunocytochemistry. Cell survival was quantified by manually counting Thy-1-positive healthy cells in each well. As shown by the data in FIGS. 1, 2, and 3, APHA-8 (Sigma, St. Louis, Mo.) and Scriptaid™ (Sigma, St. Louis, Mo.) were protective against glutamate-, tumor necrosis factor-alpha (TNFα)-, and trophic factor withdrawal (TFW)-induced toxicity.

Cn1cc(C(=O)Cc2ccccc2)cc1C=CC(=O)NO [APHA-8, 3-(1-methyl-4-phenlyacetyl-1H-2-pyrrolyl)-N-hydroxy-2-propenamide]
protective: RGC survival against trophic factor withdrawal (TFW)-induced toxicity | RGC survival against TNFα-induced toxicity | RGC survival against glutamate-induced toxicity

O=C(CCCCCN1C(=O)c2cccc3cccc(c23)C1=O)NO [Scriptaid™, 6-(1,3-Dioxo-1H, 3H-benzo[de]isoquinolin-2-yl)-hexanoic acid hydroxyamide]
protective: RGC survival against trophic factor withdrawal (TFW)-induced toxicity | RGC survival against TNFα-induced toxicity | RGC survival against glutamate-induced toxicity
